For twelve compounds, GI50 and TGI results are on record in PubChem BioAssay (NCI).

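All cell lines were grown in 96-well plates and treated with compound for 48 hours. Abbreviation: GI50, concentration required for 50% inhibition of growth. Definition used: TGI = concentration required for complete inhibition of growth.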

Among the test systems are A549 NSCLC; HS 578T breast; LOX IMVI melanoma; MALME-3M melanoma; NCI-H522 lung; NCI/ADR-RES ovarian; SK-MEL-28 melanoma; SK-MEL-5 melanoma; SN12C renal; SR leukemia.
Assay in all cases: growth of human tumour cells (NCI), 48 h

Turning to `CNC(=O)c1cncc(/C=C/c2c(C)cccc2C)c1`, the GI50 is more than 25 µM in the test with A549 NSCLC; 7.19 µM with HS 578T breast; 16.2 µM with LOX IMVI melanoma; 16 µM in the test on MALME-3M melanoma; more than 17.8 µM in the test on NCI-H522 lung; more than 25 µM with NCI/ADR-RES ovarian. Moreover, the GI50 in the test with SK-MEL-28 melanoma was more than 25 µM; with SK-MEL-5 melanoma, more than 25 µM; in the test with SN12C renal, 20.6 µM; in the test on SR leukemia, more than 25 µM. For the same compound, the TGI in the test on A549 NSCLC was more than 25 µM; in the test on HS 578T breast, 24.2 µM; in the test on LOX IMVI melanoma, more than 25 µM; in the test with MALME-3M melanoma, more than 25 µM; in the test on NCI-H522 lung, more than 25 µM; in the test on NCI/ADR-RES ovarian, more than 25 µM. The TGI with SK-MEL-28 melanoma, in the test with SK-MEL-5 melanoma, in the test with SN12C renal and in the test on SR leukemia was more than 25 µM in each case.
For `COc1c(B(O)O)cccc1-c1nc2c(F)cc3[nH]ncc3c2c2c1CCCC2`, the GI50 in the test with A549 NSCLC was 1.05 µM; with HS 578T breast it was 0.0716 µM; in the test on LOX IMVI melanoma, 0.865 µM; with MALME-3M melanoma it was 3.71 µM; in the test on NCI-H522 lung it was 1.98 µM; with NCI/ADR-RES ovarian, 2.44 µM. The GI50 is 2.95 µM with SK-MEL-28 melanoma, 3.08 µM in the test with SK-MEL-5 melanoma, 1.24 µM in the test with SN12C renal and 2.13 µM with SR leukemia. Besides, the TGI in the test with A549 NSCLC is more than 55.8 µM; in the test with HS 578T breast, 20.8 µM; in the test with LOX IMVI melanoma, 5.62 µM; with MALME-3M melanoma, 9.11 µM; in the test on NCI-H522 lung, 13.1 µM; in the test with NCI/ADR-RES ovarian, 22.1 µM. Also, the TGI in the test with SK-MEL-28 melanoma was 11.3 µM; in the test with SK-MEL-5 melanoma, 11.5 µM; in the test on SN12C renal, 45 µM; with SR leukemia it was more than 88.5 µM.
For the compound `COc1cc([C@@H]2c3cc4c(cc3[C@H](OC(C)=O)[C@H]3COC(=O)[C@H]23)OCO4)cc(OC)c1OC`, the GI50 with A549 NSCLC is 0.0349 µM; in the test on HS 578T breast, 0.0312 µM; in the test on LOX IMVI melanoma, 0.0293 µM; in the test on MALME-3M melanoma it was more than 100 µM; in the test with NCI-H522 lung, 0.018 µM; in the test with NCI/ADR-RES ovarian, 0.0271 µM. Also, the GI50 is 13.1 µM in the test on SK-MEL-28 melanoma, 0.0229 µM in the test on SK-MEL-5 melanoma, 0.0457 µM in the test with SN12C renal and 0.0225 µM in the test with SR leukemia. Also, the TGI in the test on A549 NSCLC was more than 100 µM; in the test on HS 578T breast, more than 100 µM; in the test on LOX IMVI melanoma, more than 100 µM; with MALME-3M melanoma it was more than 100 µM; in the test with NCI-H522 lung, 0.0722 µM; with NCI/ADR-RES ovarian, more than 100 µM. Moreover, the TGI was more than 100 µM with SK-MEL-28 melanoma, 0.0658 µM in the test with SK-MEL-5 melanoma, more than 100 µM with SN12C renal and more than 100 µM in the test on SR leukemia.
As to `C=C1SC(=Nc2ccccc2Cl)N(C(=O)c2sc3ccccc3c2Cl)C1(C)C`, the GI50 was 4.5 µM with A549 NSCLC; 5.66 µM in the test on HS 578T breast; 9.62 µM in the test with LOX IMVI melanoma; 2.01 µM in the test on MALME-3M melanoma; 3.03 µM in the test with NCI-H522 lung; 3.71 µM in the test on NCI/ADR-RES ovarian. The GI50 with SK-MEL-28 melanoma is 37.2 µM; with SK-MEL-5 melanoma it was 6.65 µM; in the test on SN12C renal, 12.6 µM; in the test with SR leukemia it was 7.1 µM. Moreover, the TGI with A549 NSCLC is more than 100 µM; in the test with HS 578T breast, 57.8 µM; with LOX IMVI melanoma, more than 100 µM; with MALME-3M melanoma, 34.6 µM; with NCI-H522 lung, 26.8 µM; in the test with NCI/ADR-RES ovarian it was more than 53 µM. Moreover, the TGI with SK-MEL-28 melanoma is more than 100 µM; in the test on SK-MEL-5 melanoma, 25.2 µM; in the test with SN12C renal, more than 100 µM; in the test on SR leukemia, more than 39.6 µM.
`O=c1ccccc(-c2ccc(-c3ccco3)cc2)c1O`: the GI50 with A549 NSCLC is 1.39 µM; in the test on HS 578T breast, 4.94 µM; in the test on LOX IMVI melanoma it was 0.472 µM; in the test on MALME-3M melanoma, 2.77 µM; in the test with NCI-H522 lung it was 4.07 µM; with NCI/ADR-RES ovarian, 0.388 µM. Besides, the GI50 in the test on SK-MEL-28 melanoma was 0.79 µM; in the test with SK-MEL-5 melanoma, 0.935 µM; with SN12C renal, 1.24 µM; in the test with SR leukemia, 0.581 µM. Also, the TGI in the test with A549 NSCLC came to 47.5 µM; with HS 578T breast it was 76.9 µM; with LOX IMVI melanoma, 11.2 µM; in the test on MALME-3M melanoma, 26.3 µM; in the test with NCI-H522 lung it was 45.8 µM; in the test with NCI/ADR-RES ovarian it was 4.65 µM. Further, the TGI came out at 17.8 µM in the test with SK-MEL-28 melanoma, 8.44 µM with SK-MEL-5 melanoma, 16.6 µM in the test with SN12C renal and 19.8 µM with SR leukemia.
Turning to `N#C/C(=C/C=C/c1ccccc1)S(=O)c1ccccc1` (stereo not drawn), the GI50 with A549 NSCLC is 2.17 µM; in the test with HS 578T breast, 2.95 µM; in the test on LOX IMVI melanoma, 0.163 µM; with MALME-3M melanoma, 0.796 µM; with NCI-H522 lung it was 0.306 µM; in the test with NCI/ADR-RES ovarian, 0.369 µM. The GI50 is 0.565 µM with SK-MEL-28 melanoma, 1.65 µM in the test on SK-MEL-5 melanoma, 0.373 µM in the test on SN12C renal and 0.281 µM with SR leukemia. Further, the TGI in the test on A549 NSCLC stood at 11.3 µM; with HS 578T breast, 39.8 µM; in the test with LOX IMVI melanoma, 0.337 µM; in the test on MALME-3M melanoma it was 2.5 µM; in the test with NCI-H522 lung, 1.35 µM; in the test on NCI/ADR-RES ovarian it was 13.7 µM. Moreover, the TGI worked out at 1.96 µM in the test on SK-MEL-28 melanoma, 3.05 µM in the test with SK-MEL-5 melanoma, 1.63 µM with SN12C renal and 4.51 µM with SR leukemia.
Consider `O=C1C(Cl)=C(Nc2cccc(O)c2)C(=O)N1c1cccc(Cl)c1`, for which the GI50 was 81.1 µM with A549 NSCLC; 29.3 µM with HS 578T breast; 22.4 µM in the test on LOX IMVI melanoma; 51.7 µM in the test on MALME-3M melanoma; 16.6 µM with NCI-H522 lung; 64.1 µM in the test with NCI/ADR-RES ovarian. The GI50 was 85.7 µM in the test with SK-MEL-28 melanoma, 50.4 µM with SK-MEL-5 melanoma, 21.9 µM in the test on SN12C renal and 27 µM in the test with SR leukemia. In addition, the TGI is more than 100 µM with A549 NSCLC; more than 100 µM in the test on HS 578T breast; 51.1 µM in the test with LOX IMVI melanoma; more than 100 µM with MALME-3M melanoma; 36.3 µM in the test with NCI-H522 lung; more than 100 µM with NCI/ADR-RES ovarian. The TGI with SK-MEL-28 melanoma is more than 100 µM; with SK-MEL-5 melanoma, more than 100 µM; with SN12C renal it was 59.8 µM; with SR leukemia, more than 100 µM.
Take `COc1ccccc1N1CCN(C(=O)c2ccc(NS(=O)(=O)c3cccc4cccnc34)cc2)CC1`: the GI50 with A549 NSCLC is more than 100 µM; in the test with HS 578T breast, more than 46.4 µM; in the test with LOX IMVI melanoma it was more than 100 µM; with MALME-3M melanoma, more than 100 µM; with NCI-H522 lung, 22.2 µM; with NCI/ADR-RES ovarian, more than 100 µM. Besides, the GI50 with SK-MEL-28 melanoma, in the test with SK-MEL-5 melanoma, in the test on SN12C renal and with SR leukemia was more than 100 µM throughout. The TGI in the test on A549 NSCLC is more than 100 µM; in the test on HS 578T breast, 99.4 µM; in the test on LOX IMVI melanoma, more than 100 µM; in the test on MALME-3M melanoma, more than 100 µM; with NCI-H522 lung, more than 88.5 µM; with NCI/ADR-RES ovarian, more than 100 µM. For the same compound, the TGI with SK-MEL-28 melanoma, in the test on SK-MEL-5 melanoma, in the test on SN12C renal and in the test on SR leukemia was more than 100 µM in each case.
Take `O=C(NC1CCN(Cc2ccccc2)CC1)c1cc(C(=O)NC2CCN(Cc3ccccc3)CC2)cc(C(=O)NC2CCN(Cc3ccccc3)CC2)c1`: the GI50 was 6.68 µM in the test with A549 NSCLC; 7.26 µM with HS 578T breast; 1.74 µM in the test with LOX IMVI melanoma; 1.12 µM with MALME-3M melanoma; 2.03 µM in the test with NCI-H522 lung; more than 50 µM in the test with NCI/ADR-RES ovarian. The GI50 in the test with SK-MEL-28 melanoma was 2.81 µM; in the test with SK-MEL-5 melanoma, 7.9 µM; in the test on SN12C renal it was 15.6 µM; in the test with SR leukemia it was 8.74 µM. Also, the TGI with A549 NSCLC was 15.4 µM; with HS 578T breast, 16.9 µM; with LOX IMVI melanoma, 6.94 µM; with MALME-3M melanoma, 2.52 µM; with NCI-H522 lung it was 10.1 µM; with NCI/ADR-RES ovarian it was more than 50 µM. Further, the TGI is 9.5 µM in the test with SK-MEL-28 melanoma, 16.9 µM in the test on SK-MEL-5 melanoma, more than 50 µM with SN12C renal and 26.2 µM in the test on SR leukemia.
Take `CC(C)(C)N1CC(OC(N)=O)C1`: the GI50 in the test with A549 NSCLC, in the test on HS 578T breast, in the test on LOX IMVI melanoma, in the test with MALME-3M melanoma, in the test on NCI-H522 lung and in the test on NCI/ADR-RES ovarian was more than 100 µM in each case. The GI50 with SK-MEL-28 melanoma, in the test with SK-MEL-5 melanoma, in the test on SN12C renal and in the test on SR leukemia was more than 100 µM in each case. Further, the TGI with A549 NSCLC, with HS 578T breast, in the test with LOX IMVI melanoma, with MALME-3M melanoma, in the test with NCI-H522 lung and in the test with NCI/ADR-RES ovarian was more than 100 µM throughout. In addition, the TGI in the test with SK-MEL-28 melanoma, in the test with SK-MEL-5 melanoma, in the test with SN12C renal and in the test with SR leukemia was more than 100 µM each time.
`O=C1c2cccc3cc([N+](=O)[O-])cc(c23)C(=O)N1CCN1CCCC1`: the GI50 in the test with A549 NSCLC is 0.242 µM; in the test with HS 578T breast, 1.08 µM; in the test with LOX IMVI melanoma it was 0.297 µM; with MALME-3M melanoma it was 0.18 µM; in the test on NCI-H522 lung, 0.495 µM; in the test with NCI/ADR-RES ovarian, 0.871 µM. Also, the GI50 was 1.3 µM in the test with SK-MEL-28 melanoma, 0.293 µM with SK-MEL-5 melanoma, 0.228 µM with SN12C renal and 0.0523 µM in the test on SR leukemia. In addition, the TGI with A549 NSCLC was found to be 1.69 µM; in the test on HS 578T breast, 5.36 µM; with LOX IMVI melanoma it was 3.27 µM; in the test on MALME-3M melanoma, 1.07 µM; with NCI-H522 lung, 2.88 µM; with SK-MEL-28 melanoma, 2.9 µM. For the same compound, the TGI came out at 0.943 µM in the test on SK-MEL-5 melanoma and 1.11 µM in the test with SN12C renal.
For `COC1OC(CBr)C(OC(c2ccccc2)(c2ccccc2)c2ccccc2)C(OC(c2ccccc2)(c2ccccc2)c2ccccc2)C1OC(c1ccccc1)(c1ccccc1)c1ccccc1` (stereo not drawn), the TGI in the test on A549 NSCLC is more than 100 µM; with HS 578T breast, 89.4 µM; with LOX IMVI melanoma it was more than 100 µM; in the test on MALME-3M melanoma, more than 100 µM; with NCI-H522 lung it was 40.8 µM; in the test with NCI/ADR-RES ovarian, more than 100 µM. Moreover, the TGI in the test on SK-MEL-28 melanoma, with SK-MEL-5 melanoma, with SN12C renal and in the test on SR leukemia was more than 100 µM in each case.
